Assay [1] relates to C. novyi-NT therapy-induced toxicity in mice bearing large subcutaneous CT26 tumors. Put plainly: C. novyi-NT therapy of large subcutaneous CT26 tumors (therapy-induced toxicity). To be noted: for mice surviving: CT26 tumor-bearing BALB/c mice, 12×10^6 spores intratumorally, ANP (osmotic pump 12 μg/day) or metyrosine (IP pre-treatment) given with parental C. novyi-NT. It counts as in vivo, mouse (BALB/c). The procedure:
ANP concentrations in the supernatant of ANP-C. novyi-NT culture and in mouse plasma were measured by an Elisa kit from Ray Biotech (EIAR-ANP-1) that recognizes both human and mouse ANP. ANP in the supernatant of ANP-C. novyi-NT culture were shown biological activities as described elsewhere (Lofton et al., 1990 Biochem. Biophys. Res. Comm., 172:793-9). Briefly, bacterial supernatants were applied to cultured bovine aortic endothelial cells (BAOEC, Cell Applications Inc.) for 3 minutes. cGMP concentrations were then measured in BAOEC lysates by the Direct cGMP Elisa Kit from Enzo following the manufacture's instruction.
The colon cancer cell line CT26 was injected subcutaneously into the right flank of six to eight week old female Balb/C mice as described elsewhere (Qiao et al., 2011 Oncotarget, 2:59-68). Tumor sizes were measured with a caliper and calculated as ½*L*W*H as described elsewhere (Tomayko et al., 1989 Can. Chemother. Pharmacol., 24:148-54). When tumors reached 600-900 mm^3 after about two weeks, 12×10^6 spores of C. novyi-NT or ANP-C. novyi-NT at 3×10^6/μl were injected intratumorally into 4 central parts of the tumor with a 32 G Hamilton syringe needle. The bacteria typical germinated in the tumors within 24 hours, turning them necrotic. Hydration of the mice was supported by daily subcutaneous injections of […] saline. Human ANP (Sigma) was dissolved in saline, loaded in mini-osmotic pumps (ALZET) with a release rate of 12 μg/day and implanted subcutaneously in the back of mice 12 hours before the spore injection. Pumps loaded with saline served as controls. Metyrosine was dissolved in PBS and injected IP at 60 mg/kg/day for three days before the C. novyi injection to deplete catecholamines in storage. Two hours after the spore injection, 60 mg/kg of metyrosine was injected intraperitoneally (IP). For each of the next three days, IP injections of metyrosine at 30 mg/kg were administered. Control groups were injected with PBS at the same time points.
Blood samples were collected into tubes containing 5 mM EDTA and 4 mM sodium metabisulfite after puncturing the facial vein or (terminally) by cardiac puncture. Subsequently, the samples were centrifuged and the plasmas were stored at −80° C. prior to analysis. Catecholamines (dopamine, norepinephrine and epinephrine) were measured using the 3-CAT Research ELISA kit from Labor Diagnostika Nord GmbH/Rocky Mountain Diagnostics. Cytokines were measured using Luminex assays based on Millipore Mouse and Human Cytokine/Chemokine panels.
ANP concentrations in the supernatant of ANP-C. novyi-642 NT culture and in mouse plasma were measured with an Elisa kit from Ray Biotech (EIAR-ANP-1) that recognizes both human and mouse ANP. […] Briefly, bacterial supernatants were applied to cultured bovine aortic endothelial cells (BAOEC, Cell Applications Inc.) for 3 minutes. cGMP concentrations were then measured in BAOEC lysates by the Direct cGMP Elisa Kit from Enzo following the manufacture's instruction.
The colon cancer cell line CT26 was injected subcutaneously into the right flank of six to eight weeks old female Balb/C mice as described elsewhere (see, e.g., Qiao et al. 2011 Oncotarget 2:59-68). Tumor sizes were measured with a caliper and calculated as ½*L*W*H as described elsewhere (see, e.g., Tomayko et al. 1989 Cancer Chemother Pharmacol 24:148-154). When tumors reached 600-900 mm^3 after about two weeks, 12×10^6 spores of C. novyi-NT or ANP-C. novyi-NT at 3×10^6/μl were injected intratumorally into 4 central parts of the tumor with a 32 G Hamilton syringe needle. The bacteria typical germinated in the tumors within 24 hours, turning them necrotic. Hydration of the mice was supported by daily subcutaneous injections of 500 μl saline. Human ANP (Sigma) was dissolved in saline, loaded in mini-osmotic pumps (ALZET) with a release rate of 12 μg/day and implanted subcutaneously in the back of mice 12 hours before the spore injection. Pumps loaded with saline served as controls. […]

Assay [2] concerns Eμ-ALL bearing C57BL/6 mice treated with mCART19. Description: mCART19 treatment of syngeneic Eμ-ALL B-ALL model. It counts as in vivo, mouse (C57BL/6). To be noted: for catecholamine and cytokine release: 24 and 72 hours after mCART19; for therapeutic (antitumor) efficacy versus mCART19 alone: prophylaxis with ANP pump or metyrosine IP. The procedure:
The Eμ-ALL cell line was derived from a lymphoid malignancy in an Eμ-myc transgenic mouse and upon IV injection, can develop B-ALL in C57BL/6 mice. The Eμ-ALL cells were co-cultured with feeder NIH-3T3 cells that were irradiated at 60 Gy, in RPMI 1640 media supplemented with 10% FBS, 0.05 mM 2-Mercaptoethanol and antibiotics. Eμ-ALL cells were transfected with luciferase via lentivirus. 2×10^6 Eμ-ALL cells were IV injected in female 6-8 week-old C57BL/6 mice via tail vein and after 6 days, mice were IP injected with cyclophosphamide (CPA) at 100 mg/kg for pre-conditioning as described elsewhere (see, e.g., Davila et al., 2013 PLoS One 8:e61338). One day after CPA treatment, 10×10^6 mCART19 cells were IV injected in the mice. Metyrosine was injected IP at 40 mg/kg/day for three days before the mCART19 injection. On the day of mCART19 injection, a fourth dose of 40 mg/kg was given IP and the mice were subsequently injected four more times at daily intervals at 30 mg/kg. One day before mCART19 injection, mini-osmotic pumps (ALZET) loaded with hANP with a release rate of 12 μg/day were implanted subcutaneously in the back of mice. Tumor load was monitored by Xenogen before and after mCART19 injection.

Setting [3] is: plasma, 36 hours after spore injection, versus parental C. novyi-NT alone.

Results on 2 compounds are retold here after patent publication US12564622B2, “Preventing cytokine release syndrome” (priority 2017, dated 2026).

Structures are written as SMILES. Several values for one entry are separate records, joined by “and”; a condition that tells them apart may be missing. Identical values can stand only once.

As for `CC[C@H](C)[C@@H]1NC(=O)[C@H](CCCNC(=N)N)NC(=O)[C@H](CC(=O)O)NC(=O)[C@H](CCSC)NC(=O)[C@H](CCCNC(=N)N)NC(=O)CNC(=O)CNC(=O)[C@H](Cc2ccccc2)NC(=O)[C@@H](NC(=O)[C@H](CO)NC(=O)[C@H](CO)NC(=O)[C@H](CCCNC(=N)N)NC(=O)[C@H](CCCNC(=N)N)NC(=O)[C@H](CC(C)C)NC(=O)[C@@H](N)CO)CSSC[C@@H](C(=O)N[C@@H](CC(N)=O)C(=O)N[C@@H](CO)C(=O)N[C@@H](Cc2ccccc2)C(=O)N[C@@H](CCCNC(=N)N)C(=O)N[C@@H](Cc2ccc(O)cc2)C(=O)O)NC(=O)CNC(=O)[C@H](CC(C)C)NC(=O)CNC(=O)[C@H](CO)NC(=O)[C@H](CCC(N)=O)NC(=O)[C@H](C)NC(=O)CNC1=O` [ANP, atrial natriuretic peptide], the mice surviving in assay [1] was ~75% and ~73%. In addition, the “robust but not curative response, of surviving mice” value in assay [1] (CT26 tumors, surviving mice) is 20% and 23%. Also, the “tissue damage and leukocyte/myeloid cell infiltration in lungs, liver, spleen” value in assay [1] (histology, versus parental C. novyi-NT) is “major reductions”. Also, in assay [1] (setting [3]), the circulating catecholamines entry is “major reductions”. For the same compound, in assay [2], the “catecholamine and cytokine release” value was “reduced”; the “therapeutic (antitumor) efficacy versus mCART19 alone” value is “matched the therapeutic efficacy”.

Take `C[C@](N)(Cc1ccc(O)cc1)C(=O)O` [metyrosine, α-methyl-tyrosine]: the mice surviving in assay [1] came to 85%. In assay [1] (setting [3]), the circulating catecholamines result is reported as “substantially reduced”; the “circulating inflammatory cytokines and chemokines” value is “substantially reduced”. Moreover, in assay [2], the “catecholamine and cytokine release” value is “reduced”; the “therapeutic (antitumor) efficacy versus mCART19 alone” value is reported as “matched the therapeutic efficacy”.
